From patent publication US6372209B1, “Vaginal lactobacillus medicant” (Gyne Logix, Inc., priority 1997, dated 2002)
Where two headings read alike, the source gives them in different places.

Columns and labels:
[1] = system: women with recurrent bacterial vaginosis; conditions: for Percentage Women Colonized with H2O2-producing Lactobacilli / Women Colonized with H2O2-producing Lactobacilli, number: n = 15
Method: In this study, a group of women with recurrent bacterial vaginosis (BV) was treated with 2% Clindamycin cream, once daily for three days, followed by Lactobacillus suppositories containing the Lactobacillus crispatus CTV-05 strain twice daily for three days. A group of women from the same clinic with recurrent bacterial vaginosis treated with Clindamycin cream alone were included for comparison. […] The patients were evaluated for vaginal presence of H2O2-producing Lactobacilli, and the absence of bacterial vaginosis infection.

[2] = system: Candida albicans ATCC 60193 (cervical isolate); assay: Agar overlay zone of inhibition of yeast growth; format: cell-based; conditions: Organism Growth Time Period 48 hours
Method: MRS agar was allowed to harden at a 5 mm slant. Lactobacillus crispatus CTV-05 was streaked across the diameter of the plate and was grown for 24, 48 or 72 hours under both anaerobic and ambient atmospheres. Control strains of Lactobacillus jensenii CTV-01, Lactobacillus crispatus CTV-02, Lactobacillus crispatus CTV-03, and Lactobacillus crispatus CTV-04 were grown in the same way. The plates were overlayed with YM agar with 10 mM CNNaS (sodium thiocyanate, previously reported to be an inhibitor of yeast growth) or without CNNaS. The agar overlays were inoculated with one of two strains of Candida albicans ATCC 60193 (cervical isolate) or Candida albicans ATCC 14053 (human blood isolate). Zones of inhibition were measured. […] Therefore, Lactobacillus crispatus CTV-05 inhibits yeast growth in vitro.

Compound: CCC[C@@H]1C[C@@H](C(=O)N[C@@H]([C@H]2O[C@H](SC)[C@H](O)[C@@H](O)[C@H]2O)[C@H](C)Cl)N(C)C1 [Clindamycin]
- Percentage Women Colonized with H2O2-producing Lactobacilli ([1]; Enrollment): 33%
- Women Colonized with H2O2-producing Lactobacilli, number ([1]; Enrollment): 5
- Percentage Women Free of Bacterial Vaginosis ([1]; One month post treatment): 53%
- Percentage Women Colonized with H2O2-producing Lactobacilli ([1]; One month post treatment): 40%
- Women Colonized with H2O2-producing Lactobacilli, number ([1]; One month post treatment): 6
- Percentage Women Free of Bacterial Vaginosis ([1]; One week post treatment): 87%
- Percentage Women Colonized with H2O2-producing Lactobacilli ([1]; One week post treatment): 7%
- Women Colonized with H2O2-producing Lactobacilli, number ([1]; One week post treatment): 1
- Percentage Women Free of Bacterial Vaginosis ([1]; Three months post treatment): 26%
- Percentage Women Colonized with H2O2-producing Lactobacilli ([1]; Three months post treatment): 33%
- Women Colonized with H2O2-producing Lactobacilli, number ([1]; Three months post treatment): 5

Compound: Lactobacillus crispatus CTV-02 [reference compound]
- Zone of Inhibition (in millimeters) [2]: 3 to 0 mm

Compound: Lactobacillus crispatus CTV-03 [reference compound]
- Zone of Inhibition (in millimeters) [2]: slight inhibition

Compound: Lactobacillus crispatus CTV-04 [reference compound]
- Zone of Inhibition (in millimeters) [2]: 5 to 2 mm

Compound: Lactobacillus jensenii CTV-01 [reference compound]
- Zone of Inhibition (in millimeters) [2]: 1 to 0 mm
